Results reported in patent US9744164B2, “Neuroprotective polyphenol analogs” (Salk Institute for Biological Studies, priority 2011, dated 2017).

What follows are molecules tested on N9 microglial cells (assay: anti-inflammatory assay, LPS-induced microglial activation (NO release)). Details: bacterial lipopolysaccharide, derivative 1-10 μM, 24 hr.
Assay type: cell-based, mouse
Description: Anti-inflammatory assay. Mouse N9 microglial cells plated in DME with 7.5% DFCS were treated with 10 μg/ml bacterial lipopolysaccharide (Sigma) alone or in the presence of the Fisetin derivatives (1-10 μM) or Fisetin (10 μM) as a positive control. After 24 hr the medium was removed, spun briefly to remove floating cells and 100 μl assayed for NO using 100 μl of the Griess Reagent (Sigma) in a 96 well plate. After incubation for 10 min at room temperature the absorbance at 550 nm was read on a microplate reader.
Three secondary screens allowed assessment of three key activities of Fisetin that are highly relevant to stroke, as well as other neurological disorders: maintenance of glutathione (GSH), the major endogenous cellular antioxidant, inhibition of LPS-induced microglial activation, an indicator of anti-inflammatory activity and PC12 cell differentiation, a measure of neurotrophic activity. All of these activities are relevant to the nerve cell loss seen in stroke (Gelderblom, et al., Stroke. 2009, 40 (5), 1849-1857; Pandya, et al., Cent. Nerv. Syst. Agents. Med. Chem. (2011) Apr. 27; Lewerenz, et al., J. Neurochem. (2010) 113 (2), 502-504). […] To assess GSH maintenance, total intracellular GSH levels after a 24 hr treatment with the compound both in the absence and presence of glutamate, an inducer of GSH loss and oxidative stress (Tan, et al., Curr. Top. Med. Chem. (2001) 1, 497-506; Maher, et al., Free Radical Research. (2006) 40 (10), 1105-1111) was measured Inhibition of LPS-induced microglial activation was determined by treating N9 mouse microglial cells with LPS alone and in the presence of the compounds and assaying NO release into the medium 24 hr later (Zheng, et al., Int. Immunopharmacol. (2008) 8, (3), 484-494). PC12 cell differentiation was determined by treating PC12 cells with the compounds and looking at neurite outgrowth after 24 hr. In all cases, Fisetin was used as a positive control (Sagara, et al., J. Neurochem. (2004) 90, 1144-1155).
The roles of the four different hydroxyl groups in the activity of Fisetin were studied. […] Cell viability was determined after 24 hr by the MTT assay. The ability to maintain GSH (GSH) was determined by treating HT22 cells with different doses of each derivative (1-10 μM) in the presence of 5 mM glutamate. After 24 hr cell extracts were prepared and analyzed for total GSH. Fisetin (10 μM) was used as a positive control. The ability to induce PC12 cell differentiation (PC12 diff'n) was determined by treating PC12 cells in N2 medium with different doses of each derivative (1-10 μM) for 24 hr. Differentiation was assessed by visual inspection with Fisetin (10 μM) as a positive control. Anti-inflammatory activity (microglia) was assessed in N9 microglial cells treated with bacterial lipopolysaccharide alone or in the presence different doses of each derivative (1-10 μM) for 24 hr. Fisetin was used as a positive control. TEAC values, a measure of direct antioxidant activity, were determined using the ABTS+ decolorization assay.

Question: How did the “microglia (anti-inflammatory activity)” value turn out when `Cc1cc2oc(-c3ccc(N4CCCC4)cc3)cc(=O)c2cc1C` [CMS-116, 6,7-dimethyl-2-(4-(pyrrolidin-1-yl)phenyl)-4H-chromen-4-one] was run?
Answer: 2%

Question: `COc1cc(-c2cc(OC)c3ccccc3n2)ccc1O` [CMS-017, 4-methoxy-2-(4-hydroxy,3-methoxyphenyl)quinoline] was tested. Which “microglia (anti-inflammatory activity)” value did it give?
Answer: 90%

Question: For `Cc1cc2oc(-c3ccc(O)cc3O)c(O)c(=O)c2cc1C` [CMS-093, 2-(2,4-dihydroxyphenyl)-3-hydroxy-6,7-dimethyl-4H-chromen-4-one], which “microglia (anti-inflammatory activity)” value is on record?
Answer: 0%

Question: Which “microglia (anti-inflammatory activity)” value does the source give for `COc1cc(-c2oc3c(ccc4ccccc43)c(=O)c2O)ccc1OCc1ccccc1` [CMS-065, 2-(4-(benzyloxy)-3-methoxyphenyl)-3-hydroxy-4H-benzo[h]chromen-4-one] here?
Answer: 88%

Question: For `COc1ccc(/C=C/C(=O)c2cc(C)c(C)cc2O)cc1O` [CMS-088, (E)-1-(2-hydroxy-4,5-dimethylphenyl)-3-(3-hydroxy-4-methoxyphenyl)prop-2-en-1-one], which “microglia (anti-inflammatory activity)” value is on record?
Answer: 56%

Question: Which “microglia (anti-inflammatory activity)” value does the source give for `CC(C)Oc1cc(-c2ccc(N3CCCC3)cc2)nc2ccccc12` [CMS-113, 4-isopropoxy-2-(4-(pyrrolidin-1-yl)phenyl)quinoline] here?
Answer: 67%

Question: Which “microglia (anti-inflammatory activity)” value does the source give for `CCOc1ccc(-c2oc3cc(C)c(C)cc3c(=O)c2O)cc1OCC` [CMS-025, 2-(3,4-diethoxyphenyl)-3-hydroxy-6,7-dimethyl-4H-chromen-4-one] here?
Answer: 11%

Question: How did the “microglia (anti-inflammatory activity)” value turn out when `CCOc1ccc(-c2oc3c(ccc4ccccc43)c(=O)c2O)cc1OCC` [CMS-036, 2-(3,4-diethoxyphenyl)-3-hydroxy-4H-benzo[h]chromen-4-one] was run?
Answer: 13%

Question: `Cc1cc2oc(-c3ccc(O)cc3O)cc(=O)c2cc1C` [CMS-094, 2-(2,4-dihydroxyphenyl)-6,7-dimethyl-4H-chromen-4-one] was tested. Which “microglia (anti-inflammatory activity)” value did it give?
Answer: 5%

Question: Which “microglia (anti-inflammatory activity)” value does the source give for `COc1cc(-c2cc(=O)c3cc(C)c(C)cc3o2)ccc1O` [CMS-064, 2-(4-hydroxy-3-methoxyphenyl)-6,7-dimethyl-4H-chromen-4-one] here?
Answer: 41%

Question: Which “microglia (anti-inflammatory activity)” value does the source give for `COc1cc(-c2ccccc2)nc2ccccc12` [CMS-021, 4-methoxy-2-phenylquinoline] here?
Answer: 6%

Question: How did the “microglia (anti-inflammatory activity)” value turn out when `COc1cc(-c2oc3cc(C)c(C)cc3c(=O)c2O)ccc1O` [CMS-069, 3-hydroxy-2-(4-hydroxy-3-methoxyphenyl)-6,7-dimethyl-4H-chromen-4-one] was run?
Answer: 77%

Question: `O=c1c(O)c(-c2ccc(O)c(O)c2)oc2ccc3ccccc3c12` [CMS-041, 3-(3,4-dihydroxyphenyl)-2-hydroxy-1H-benzo[f]chromen-1-one] was tested. Which “microglia (anti-inflammatory activity)” value did it give?
Answer: 87%

Question: `COc1cc(-c2ccc(N(C)C)cc2)nc2ccccc12` [CMS-109, 4-methoxy-2-(4-dimethylaminophenyl)quinoline] was tested. Which “microglia (anti-inflammatory activity)” value did it give?
Answer: 62%

Question: Which “microglia (anti-inflammatory activity)” value does the source give for `O=c1cc(-c2ccc(N3CCCC3)cc2)oc2c1ccc1ccccc12` [CMS-115, 2-(4-(pyrrolidin-1-yl)phenyl)-4H-benzo[h]chromen-4-one] here?
Answer: 23%

Question: For `COc1cc(-c2oc3cc(C)c(C)cc3c(=O)c2O)ccc1OCc1ccccc1` [CMS-059, 2-(4-(benzyloxy)-3-methoxyphenyl)-3-hydroxy-6,7-dimethyl-4H-chromen-4-one], which “microglia (anti-inflammatory activity)” value is on record?
Answer: 14%

Question: Which “microglia (anti-inflammatory activity)” value does the source give for `Cc1cc2oc(-c3ccc(O)c(O)c3)c(O)c(=O)c2cc1C` [CMS-027, 2-(3,4-dihydroxyphenyl)-3-hydroxy-6,7-dimethyl-4H-chromen-4-one] here?
Answer: 82%

Question: For `O=c1c(O)c(-c2ccc(N3CCCC3)cc2)oc2c1ccc1ccccc12` [CMS-114, 3-hydroxy-2-(4-(pyrrolidin-1-yl)phenyl)-4H-benzo[h]chromen-4-one], which “microglia (anti-inflammatory activity)” value is on record?
Answer: 26%

Question: How did the “microglia (anti-inflammatory activity)” value turn out when `COc1cc(-c2oc3c(ccc4ccccc43)c(=O)c2O)ccc1O` [CMS-070, 3-hydroxy-2-(4-hydroxy-3-methoxyphenyl)-4H-benzo[h]chromen-4-one] was run?
Answer: 78%

Question: `CN(C)c1ccc(-c2cc(=O)c3ccc4ccccc4c3o2)cc1` [CMS-120, 2-(4-(dimethylamino)phenyl)-4H-benzo[h]chromen-4-one] was tested. Which “microglia (anti-inflammatory activity)” value did it give?
Answer: 35%

Question: Which “microglia (anti-inflammatory activity)” value does the source give for `Cc1cc(O)c(C(=O)/C=C/c2ccc(O)cc2O)cc1C` [CMS-087, (E)-3-(2,4-dihydroxyphenyl)-1-(2-hydroxy-4,5-dimethylphenyl)prop-2-en-1-one] here?
Answer: 53%

Question: How did the “microglia (anti-inflammatory activity)” value turn out when `COc1cc(-c2cc(=O)c3cc(C)c(C)cc3o2)ccc1OCc1ccccc1` [CMS-058, 2-(4-(benzyloxy)-3-methoxyphenyl)-6,7-dimethyl-4H-chromen-4-one] was run?
Answer: 83%

Question: `COc1cc(-c2ccc(O)cc2O)nc2ccccc12` [CMS-083, 4-methoxy-2-(2,4-dihydroxyphenyl)quinoline] was tested. Which “microglia (anti-inflammatory activity)” value did it give?
Answer: 84%

Question: With `Cc1cc2oc(-c3ccc(N(C)C)cc3)cc(=O)c2cc1C` [CMS-119, 2-(4-(dimethylamino)phenyl)-6,7-dimethyl-4H-chromen-4-one] as the molecule, how does the “microglia (anti-inflammatory activity)” value read?
Answer: 8%

Question: Which “microglia (anti-inflammatory activity)” value does the source give for `CC(C)Oc1cc(-c2ccc(O)cc2O)nc2ccccc12` [CMS-084, 4-isopropoxy-2-(2,4-dihydroxyphenyl)quinoline] here?
Answer: 64%

Question: Which “microglia (anti-inflammatory activity)” value does the source give for `COc1ccc(-c2oc3cc(C)c(C)cc3c(=O)c2O)cc1O` [CMS-092, 3-hydroxy-2-(3-hydroxy-4-methoxyphenyl)-6,7-dimethyl-4H-chromen-4-one] here?
Answer: 72%

Question: For `CC(C)Oc1cc(-c2ccc(N(C)C)cc2)nc2ccccc12` [CMS-112, 4-isopropoxy-2-(4-dimethylaminophenyl)quinoline], which “microglia (anti-inflammatory activity)” value is on record?
Answer: 71%

Question: With `COc1cc(/C=C/C(=O)c2ccc3ccccc3c2O)ccc1OCc1ccccc1` [CMS-063, (E)-3-(4-(benzyloxy)-3-methoxyphenyl)-1-(1-hydroxynaphthalen-2-yl)prop-2-en-1-one] as the molecule, how does the “microglia (anti-inflammatory activity)” value read?
Answer: 9%
